According to ChEMBL document CHEMBL1139197, “Synthesis, structural analysis, and SAR studies of triazine derivatives as potent, selective Tie-2 inhibitors” (Bioorg Med Chem Lett, 2007):
In brackets after ≈: the same amount, converted by molar mass.

What was measured:
[1] = biological target: T1, Angiopoietin-1 receptor (Homo sapiens, UniProt Q02763); assay: Inhibition of Tie2 after 90 mins by HTRF assay
[2] = biological target: T1, Angiopoietin-1 receptor; assay: Inhibition of Tie2 autophosphorylation in EA.hy926 cells after […]; format: cell-based
[3] = Clearance in Sprague-Dawley rat at 2 mg/kg, iv; format: ADME, organism-based; design: dose 2 mg/kg, route intravenous; conditions: in vivo
[4] = biological target: T2, Vascular endothelial growth factor receptor 2 (Homo sapiens, UniProt P35968); assay: Inhibition of KDR after 90 mins by HTRF assay
T2 sequence (P35968 whole entry): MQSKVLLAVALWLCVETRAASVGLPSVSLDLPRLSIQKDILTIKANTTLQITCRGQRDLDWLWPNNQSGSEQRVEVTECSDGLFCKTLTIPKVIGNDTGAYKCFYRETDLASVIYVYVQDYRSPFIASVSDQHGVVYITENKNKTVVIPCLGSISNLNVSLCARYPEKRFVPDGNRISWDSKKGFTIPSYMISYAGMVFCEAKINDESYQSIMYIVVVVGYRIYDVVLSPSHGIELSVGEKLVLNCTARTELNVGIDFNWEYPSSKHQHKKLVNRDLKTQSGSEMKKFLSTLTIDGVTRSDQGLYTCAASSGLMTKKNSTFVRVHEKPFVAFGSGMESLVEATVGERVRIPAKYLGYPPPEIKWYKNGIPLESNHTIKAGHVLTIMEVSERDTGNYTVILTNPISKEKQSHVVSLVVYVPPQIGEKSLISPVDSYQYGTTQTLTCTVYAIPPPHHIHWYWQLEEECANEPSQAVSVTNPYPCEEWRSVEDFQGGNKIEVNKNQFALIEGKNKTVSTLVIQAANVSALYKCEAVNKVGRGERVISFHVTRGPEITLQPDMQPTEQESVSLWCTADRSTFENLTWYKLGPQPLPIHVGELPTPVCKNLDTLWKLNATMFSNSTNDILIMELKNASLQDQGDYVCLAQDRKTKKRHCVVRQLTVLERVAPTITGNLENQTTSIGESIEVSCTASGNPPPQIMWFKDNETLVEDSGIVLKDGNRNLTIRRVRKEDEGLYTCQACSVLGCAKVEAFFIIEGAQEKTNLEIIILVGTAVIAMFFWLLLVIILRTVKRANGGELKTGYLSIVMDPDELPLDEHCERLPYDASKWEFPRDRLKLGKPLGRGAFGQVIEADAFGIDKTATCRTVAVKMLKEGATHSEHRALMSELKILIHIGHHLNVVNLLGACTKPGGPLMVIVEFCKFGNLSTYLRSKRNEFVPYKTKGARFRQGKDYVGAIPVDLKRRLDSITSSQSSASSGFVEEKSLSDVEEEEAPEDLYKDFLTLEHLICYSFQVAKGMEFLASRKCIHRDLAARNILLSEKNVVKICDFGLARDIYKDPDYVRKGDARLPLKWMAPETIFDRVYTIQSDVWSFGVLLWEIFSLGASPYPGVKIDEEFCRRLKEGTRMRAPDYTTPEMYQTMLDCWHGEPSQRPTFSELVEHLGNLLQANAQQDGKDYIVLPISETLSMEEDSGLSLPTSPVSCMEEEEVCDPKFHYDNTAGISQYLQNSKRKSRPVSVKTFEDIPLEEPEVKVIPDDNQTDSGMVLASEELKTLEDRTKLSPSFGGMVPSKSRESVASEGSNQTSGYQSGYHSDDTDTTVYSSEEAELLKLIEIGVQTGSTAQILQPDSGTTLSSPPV

[5] = biological target: Vascular endothelial growth factor receptor 2 and tyrosine-protein kinase TIE-2 (KDR and TIE2) (Homo sapiens) (UniProt P35968+Q02763); assay: Selectivity for Tie2 over KDR in cell based autophosphorylation assay
Chain of Vascular endothelial growth factor receptor 2 and tyrosine-protein kinase TIE-2 (KDR and TIE2) (Homo sapiens) (P35968 whole entry, looked up): as the sequence (P35968 whole entry) above
Chain of Vascular endothelial growth factor receptor 2 and tyrosine-protein kinase TIE-2 (KDR and TIE2) (Homo sapiens) (Q02763 whole entry, looked up): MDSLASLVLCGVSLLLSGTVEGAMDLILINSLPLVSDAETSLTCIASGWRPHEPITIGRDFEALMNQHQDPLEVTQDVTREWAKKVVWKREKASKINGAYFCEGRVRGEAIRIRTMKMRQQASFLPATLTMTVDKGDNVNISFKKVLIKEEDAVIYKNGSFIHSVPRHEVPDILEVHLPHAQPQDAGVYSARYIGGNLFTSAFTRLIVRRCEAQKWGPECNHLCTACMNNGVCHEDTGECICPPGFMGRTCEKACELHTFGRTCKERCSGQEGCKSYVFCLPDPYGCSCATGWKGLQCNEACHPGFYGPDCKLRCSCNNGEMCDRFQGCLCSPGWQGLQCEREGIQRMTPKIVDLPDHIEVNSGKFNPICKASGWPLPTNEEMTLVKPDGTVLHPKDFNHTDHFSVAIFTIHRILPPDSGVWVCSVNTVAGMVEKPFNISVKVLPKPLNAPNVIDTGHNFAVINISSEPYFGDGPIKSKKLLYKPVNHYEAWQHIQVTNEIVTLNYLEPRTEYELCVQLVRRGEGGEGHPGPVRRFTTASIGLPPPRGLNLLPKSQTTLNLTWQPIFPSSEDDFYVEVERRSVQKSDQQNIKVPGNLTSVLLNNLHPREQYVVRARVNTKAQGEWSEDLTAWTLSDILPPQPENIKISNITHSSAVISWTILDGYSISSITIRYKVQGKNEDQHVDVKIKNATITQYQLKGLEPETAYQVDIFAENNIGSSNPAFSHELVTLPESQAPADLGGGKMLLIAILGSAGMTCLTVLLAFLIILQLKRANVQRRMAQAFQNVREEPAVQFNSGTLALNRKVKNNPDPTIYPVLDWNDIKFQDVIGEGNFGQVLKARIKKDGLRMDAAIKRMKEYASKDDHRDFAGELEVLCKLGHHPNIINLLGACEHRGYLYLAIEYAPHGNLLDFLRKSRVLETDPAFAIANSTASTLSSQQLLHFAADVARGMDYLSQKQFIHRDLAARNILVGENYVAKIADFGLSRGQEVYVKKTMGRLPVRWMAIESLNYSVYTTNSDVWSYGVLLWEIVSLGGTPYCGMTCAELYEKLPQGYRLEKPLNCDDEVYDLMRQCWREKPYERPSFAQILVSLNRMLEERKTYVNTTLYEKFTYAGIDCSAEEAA

[6] = biological target: T2, Vascular endothelial growth factor receptor 2; assay: Inhibition of KDR autophosphorylation in EA.hy926 cells after […]; format: cell-based
[7] = Half life in Sprague-Dawley rat at 2 mg/kg, iv; format: ADME, organism-based; design: dose 2 mg/kg, route intravenous; conditions: in vivo
[8] = Mean residence time in Sprague-Dawley rat; format: ADME, organism-based; conditions: in vivo
[9] = biological target: T3, Mitogen-activated protein kinase 14 (Homo sapiens, UniProt Q16539); assay: Inhibition of p38-alpha by radioactive filtration assay
T3 sequence (Q16539 whole entry): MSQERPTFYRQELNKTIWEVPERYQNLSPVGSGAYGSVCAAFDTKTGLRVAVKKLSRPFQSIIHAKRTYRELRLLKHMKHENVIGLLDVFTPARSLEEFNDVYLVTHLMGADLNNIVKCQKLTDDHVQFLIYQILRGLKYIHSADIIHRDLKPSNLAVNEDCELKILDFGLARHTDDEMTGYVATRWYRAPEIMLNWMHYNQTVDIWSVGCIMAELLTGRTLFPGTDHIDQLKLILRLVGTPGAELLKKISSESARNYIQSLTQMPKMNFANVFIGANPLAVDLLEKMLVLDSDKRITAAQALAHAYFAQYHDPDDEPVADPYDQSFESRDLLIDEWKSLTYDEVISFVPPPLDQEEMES

[10] = biological target: Tyrosine-protein kinase Lck (Homo sapiens, UniProt P06239); assay: Inhibition of Lck by radioactive filtration assay
Chain of Tyrosine-protein kinase Lck (P06239 whole entry): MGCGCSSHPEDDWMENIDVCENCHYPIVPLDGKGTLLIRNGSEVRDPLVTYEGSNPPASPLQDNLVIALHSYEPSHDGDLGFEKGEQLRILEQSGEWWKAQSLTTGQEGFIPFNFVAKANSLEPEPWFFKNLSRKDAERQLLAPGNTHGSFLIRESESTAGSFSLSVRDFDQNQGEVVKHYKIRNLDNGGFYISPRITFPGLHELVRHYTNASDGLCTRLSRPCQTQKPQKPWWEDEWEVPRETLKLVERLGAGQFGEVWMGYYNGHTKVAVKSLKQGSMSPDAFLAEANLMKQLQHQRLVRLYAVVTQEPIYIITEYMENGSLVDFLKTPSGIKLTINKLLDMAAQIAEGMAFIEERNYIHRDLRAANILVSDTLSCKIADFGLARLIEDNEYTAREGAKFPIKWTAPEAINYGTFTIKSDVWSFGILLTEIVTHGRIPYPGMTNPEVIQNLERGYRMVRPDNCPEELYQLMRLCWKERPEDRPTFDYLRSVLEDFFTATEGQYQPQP

[11] = Volume of distribution in Sprague-Dawley rat at 2 mg/kg, iv; format: ADME, organism-based; design: dose 2 mg/kg, route intravenous; conditions: in vivo, read-out: Vdss
[12] = Cmax in Sprague-Dawley rat at 10 mg/kg, po; format: ADME, organism-based; design: dose 10 mg/kg, route oral; conditions: in vivo
[13] = AUC (0 to infinity) in Sprague-Dawley rat at 10 mg/kg, po; format: ADME, organism-based; design: time infinity, dose 10 mg/kg, route oral; conditions: plasma
[14] = Solubility in 0.01 N HCl at pH 2.0; format: physicochemical
[15] = biological target: Fibroblast growth factor receptor (Homo sapiens, UniProt P22607+P11362+P22455+P21802); assay: Inhibition of FGFR by radioactive filtration assay; format: protein assay
[16] = Oral bioavailability in Sprague-Dawley rat at 10 mg/kg, po; format: ADME, organism-based; conditions: in vivo
[17] = biological target: Tyrosine-protein kinase JAK2 (Homo sapiens, UniProt O60674); assay: Inhibition of Jak2 by radioactive filtration assay
Chain of Tyrosine-protein kinase JAK2 (O60674 whole entry): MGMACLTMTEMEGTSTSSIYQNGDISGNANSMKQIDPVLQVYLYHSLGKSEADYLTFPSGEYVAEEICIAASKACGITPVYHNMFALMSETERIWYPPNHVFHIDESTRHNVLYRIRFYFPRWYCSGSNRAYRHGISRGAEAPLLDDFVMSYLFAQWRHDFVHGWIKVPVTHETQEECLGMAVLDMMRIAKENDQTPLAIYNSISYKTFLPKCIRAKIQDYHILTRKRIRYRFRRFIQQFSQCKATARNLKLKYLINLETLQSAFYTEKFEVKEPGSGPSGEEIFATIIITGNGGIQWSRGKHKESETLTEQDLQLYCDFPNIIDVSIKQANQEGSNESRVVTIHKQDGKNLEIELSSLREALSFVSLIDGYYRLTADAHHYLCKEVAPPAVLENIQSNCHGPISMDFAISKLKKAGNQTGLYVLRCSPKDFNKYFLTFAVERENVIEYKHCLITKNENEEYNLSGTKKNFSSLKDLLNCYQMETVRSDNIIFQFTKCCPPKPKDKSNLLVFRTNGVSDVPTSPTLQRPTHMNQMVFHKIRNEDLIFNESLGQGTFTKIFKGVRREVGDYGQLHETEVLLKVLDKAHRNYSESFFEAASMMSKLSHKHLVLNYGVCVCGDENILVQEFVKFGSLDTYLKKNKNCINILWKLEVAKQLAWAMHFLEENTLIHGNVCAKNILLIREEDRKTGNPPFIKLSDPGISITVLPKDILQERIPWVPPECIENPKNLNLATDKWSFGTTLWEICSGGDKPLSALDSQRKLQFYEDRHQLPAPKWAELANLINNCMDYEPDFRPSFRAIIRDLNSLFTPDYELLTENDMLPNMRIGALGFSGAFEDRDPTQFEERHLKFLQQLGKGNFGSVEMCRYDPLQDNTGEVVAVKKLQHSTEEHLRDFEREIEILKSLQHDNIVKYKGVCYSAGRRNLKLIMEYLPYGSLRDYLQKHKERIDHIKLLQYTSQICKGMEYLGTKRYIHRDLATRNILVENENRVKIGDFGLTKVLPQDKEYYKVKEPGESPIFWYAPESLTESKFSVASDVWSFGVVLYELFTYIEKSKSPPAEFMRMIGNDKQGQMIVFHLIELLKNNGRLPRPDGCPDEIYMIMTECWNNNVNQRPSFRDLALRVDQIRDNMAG

[18] = Solubility in phosphate buffer at pH 7.1; format: physicochemical
[19] = biological target: T3, Mitogen-activated protein kinase 14; assay: Inhibition of p38-alpha in THP1 cells assessed as TNFalpha levels; format: cell-based, THP-1
[20] = biological target: Mitogen-activated protein kinase 10 (Homo sapiens, UniProt P53779); assay: Inhibition of JNK3 by radioactive filtration assay
Chain of Mitogen-activated protein kinase 10 (P53779 whole entry): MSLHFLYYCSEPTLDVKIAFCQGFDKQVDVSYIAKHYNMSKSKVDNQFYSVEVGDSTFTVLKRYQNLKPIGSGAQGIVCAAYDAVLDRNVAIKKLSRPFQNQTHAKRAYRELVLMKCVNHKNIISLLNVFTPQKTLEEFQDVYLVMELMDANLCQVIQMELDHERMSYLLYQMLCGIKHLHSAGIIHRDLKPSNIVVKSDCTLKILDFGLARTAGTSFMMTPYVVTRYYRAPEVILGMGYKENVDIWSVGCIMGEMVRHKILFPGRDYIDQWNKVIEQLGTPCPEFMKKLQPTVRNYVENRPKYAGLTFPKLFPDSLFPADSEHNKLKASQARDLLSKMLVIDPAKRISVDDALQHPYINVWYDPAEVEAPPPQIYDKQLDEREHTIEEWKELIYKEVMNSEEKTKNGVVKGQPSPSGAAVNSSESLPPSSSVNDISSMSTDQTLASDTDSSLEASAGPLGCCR

[21] = biological target: Mast/stem cell growth factor receptor Kit (Homo sapiens, UniProt P10721); assay: Inhibition of cKit by radioactive filtration assay
[22] = biological target: Proto-oncogene tyrosine-protein kinase Src (Homo sapiens, UniProt P12931); assay: Inhibition of Src by radioactive filtration assay

T1 sequence (Q02763 whole entry): as the sequence (Q02763 whole entry, looked up) above

SMILES	IC50 [1] [nM]	IC50 [2] [nM]	clearance [3] [mL/min/kg]	IC50 [4] [nM]	other results
CNc1ncnc(-c2cccnc2Oc2cc(NC(=O)c3cccc(C(C)C)c3)ccc2C)n1	1	5	65.7	117	
CNc1ncnc(-c2cccnc2Oc2cc(C(=O)Nc3cccc(C(C)C)c3)ccc2C)n1	1			20	
CNc1ncnc(-c2cccnc2Oc2cc(NC(=O)c3cccc(-n4cccc4)c3)ccc2C)n1	17	23	63.8	1130	Ratio IC50 [5]: > 1000; IC50 [6]: 25000 nM
CNc1ncnc(-c2cccnc2Oc2cc(NC(=O)c3cccc(OC(F)(F)F)c3)ccc2C)n1	8	15	83	442	IC50 [6]: 540 nM
CNc1ncnc(-c2cccnc2Oc2cc(NC(=O)c3cccc(C(C)C)c3)ccc2F)n1	4		18.4	128	half-life [7]: 0.8 h; MRT [8]: 0.5 h
Cc1ccc(NC(=O)c2cccc(C(F)(F)F)c2)cc1Nc1ncccc1-c1ccncn1				61	
CNc1ncnc(-c2cccnc2Oc2cc(NC(=O)c3cccc(OC(F)(F)C(F)F)c3)ccc2C)n1	16	33	14.8	1000	IC50 [9]: 47 nM; IC50 [10]: 146 nM; Vd [11]: 1.31 L/kg; Cmax [12]: 119 ng/mL; AUC(0-inf) [13]: 509 ng·h/mL; solubility [14]: 21 µg/mL (≈ 39.7 µM); IC50 [15]: 5360 nM; bioavailability [16]: 4%; IC50 [17]: 1750 nM; half-life [7]: 1.7 h; MRT [8]: 1.5 h; solubility [18]: 3 µg/mL (≈ 5.68 µM); IC50 [19]: 194 nM; IC50 [6]: 4300 nM; IC50 [20]: 40000 nM; IC50 [21]: 17800 nM; IC50 [22]: 2190 nM
CNc1ncnc(-c2cccnc2Oc2cc(NC(=O)c3cccc(C(C)C)c3)cc(C(F)(F)F)c2)n1	55			25000	
CNc1nccc(-c2cccnc2Oc2cc(C(=O)Nc3cccc(C(C)C)c3)ccc2C)n1	13			38	
CNc1ncnc(-c2cccnc2Oc2cccc(NC(=O)c3cccc(C(C)C)c3)c2)n1	6	85	73.7	456	
CNc1ncnc(-c2cccnc2Oc2cc(NC(=O)c3cccc(C(F)(F)F)c3)ccc2C)n1	20			309	

Now from value to compound, other results behind:

IC50 [1] [nM]	IC50 [2] [nM]	clearance [3] [mL/min/kg]	IC50 [4] [nM]	SMILES	other results
2			2	CNc1nccc(-c2cccnc2Oc2cc(NC(=O)c3cccc(C(C)C)c3)ccc2C)n1	
1	11	54.3	18	CNc1cc(-c2cccnc2Oc2cc(NC(=O)c3cccc(C(C)C)c3)ccc2C)ccn1	
6			9	CNc1cc(-c2cccnc2Oc2ccc(Cl)c(NC(=O)c3cccc(C(C)C)c3)c2)ccn1	
4			18	CNc1cc(-c2cccnc2Oc2cccc(NC(=O)c3cccc(C(C)C)c3)c2)ccn1	
9	13	60.7	233	CNc1cc(-c2cccnc2Oc2cc(NC(=O)c3cccc(OC(F)(F)C(F)F)c3)ccc2C)ccn1	IC50 [6]: 943 nM
3			5	CNc1cc(-c2cccnc2Oc2cc(C(=O)Nc3cccc(C(C)C)c3)ccc2C)ccn1	
